Assay results reported in patent US4263437A, “Acetic acid derivatives of 5,6-dihydrobenzo[b]pyrido[3,2-f]thiepine and oxepine” (Nippon Chemiphar Co., Ltd., priority 1978, dated 1981).

Test system: carrageenan-induced edema in the hind paws
Experiment: Carrageenan-induced hind paw edema in rats (oral administration)
Assay type: in vivo, Male Wistar rats
Conditions: Rattus norvegicus, 1 hour before 0.1 ml of 1% carrageenan, 3 hours
Procedure: Male Wistar rats each weighing about 100 g, one group consisting of 5 to 7 animals, were orally given the compounds according to this invention, and edema was induced in the hind paws by subcutaneous injections of 0.1 ml of 1% carrageenan one hour after the administration of the test compounds. Thereafter, the volumes of the hind paws were measured by a volume differential meter.

Point of comparison: `O=C(O)Cc1ccc2c(c1)C(=O)Cc1ccccc1S2` [Compound 1, (10,11-Dihydro-11-oxo dibenzo[b,f]thiepin-2-yl)-acetic acid], inhibition in vivo at 5 mg/kg 58%. Against it:
- NC(=O)Cc1ccc2c(c1)C(=O)Cc1ccccc1S2 [Compound 2, (10,11-Dihydro-11-oxo dibenzo[b,f]thiepin-2-yl)-acetamide] — lower, 42.1%
- CCOC(=O)Cc1ccc2c(c1)C(=O)Cc1ccccc1S2 [Compound 3, Ethyl(10,11-dihydro-11-oxodibenzo[b,f]thiepin-2-yl)-acetate] — lower, 50.6%
- O=C(O)Cc1ccc2c(c1)CCc1ccccc1S2 [Compound 4, (10,11-Dihydro dibenzo[b,f]thiepin-2-yl)-acetic acid] — lower, 45.3%
- CCOC(=O)Cc1ccc2c(c1)CCc1ccccc1S2 [Compound 5, Ethyl(10,11-dihydrodibenzo[b,f]thiepin-2-yl)-acetate] — lower, 46%
- O=C(O)Cc1ccc2c(c1)C(=O)Cc1ccccc1O2 [Compound 6, (10,11-dihydro-11-oxo dibenzo[b,f]oxepin-2-yl)-acetic acid] — lower, 44.1%
- CCOC(=O)Cc1ccc2c(c1)C(=O)Cc1ccccc1O2 [Compound 7, Ethyl(10,11-dihydro-11-oxodibenzo[b,f]oxepin-2-yl)-acetate] — lower, 47.9%
- O=C(O)Cc1ccc2c(c1)CCc1ccccc1O2 [Compound 8, (10,11-Dihydro dibenzo[b,f]oxepin-2-yl)-acetic acid] — higher, 61.4%
- CCOC(=O)Cc1ccc2c(c1)CCc1ccccc1O2 [Compound 9, Ethyl (10,11-dihydro dibenzo[b,f]oxepin-2-yl)-acetate] — higher, 63.4%
- COC(=O)Cc1ccc2c(c1)C(=O)Cc1cccnc1S2 [Compound 10, Methyl (5,6-dihydro-6-oxo benzo[b]pyrido[3,2-f]thiepin-8-yl)-acetate] — lower, 38.4%
- O=C(O)Cc1ccc2c(c1)CCc1cccnc1S2 [Compound 11, (5,6-Dihydro benzo[b]pyrido[3,2-f]thiepin-8-yl)-acetic acid] — higher, 59.7%
- NC(=O)Cc1ccc2c(c1)CCc1cccnc1S2 [Compound 12, (5,6-Dihydro benzo[b]pyrido[3,2-f]thiepin-8yl)-acetamide] — lower, 43.9%
- CCOC(=O)Cc1ccc2c(c1)CCc1cccnc1S2 [Compound 13, Ethyl(5,6-dihydrobenzo[b]pyrido[3,2-f]thiepin-8-yl)-acetate] — higher, 64.6%
- O=C(O)Cc1ccc2c(c1)CCc1cccnc1O2 [Compound 14, (5,6-Dihydro benzo[b]pyrido[3,2-f]oxepin-8-yl)-acetic acid] — lower, 50.6%
- CCOC(=O)Cc1ccc2c(c1)CCc1cccnc1O2 [Compound 15, Ethyl(5,6-dihydrobenzo[b]pyrido[3,2-f]oxepin-8-yl)-acetate] — lower, 41.6%
- O=C(O)c1ccccc1Nc1cccc(C(F)(F)F)c1 [Flufenamic acid, reference compound] — lower, 29.3%
- CCCCC1C(=O)N(c2ccccc2)N(c2ccccc2)C1=O [Phenylbutazone, reference compound] — lower, 20.9%
